US10119168B2, “Methods for the treatment of kidney fibrosis” (priority 2014, dated 2018)

System: mouse kidney
Assay: RNA-seq of kidney gene expression over time in FA nephropathy progression (Table 1)
Assay type: in vivo
Text: Identification of Candidate Genes for Biomarkers of Kidney Fibrosis Through RNA-Seq. […] To select genes that are indicative of fibrosis candidates were considered from this later group that had robust upregulation (>5-fold with >100 read counts at peak) over time as fibrosis progresses. Another important criteria was the location of the protein product of the gene, either in extracellular matrix or transmembrane, to increase the chance of detecting it in the urine and use it as a biomarker(11).
(§1) RNA samples (n=3 mice/time point) were sequenced at the Bioplymers Facility at the Harvard Medical School. Libraries were prepared from 10 ng total RNA per sample using the IntegenX Apollo 324 system and NuGEN SPIA reagents. Libraries were multiplexed in groups of three per lane of a flowcell and 50 cycle, paired-end sequencing was performed on an Illumina HiSeq2000 instrument. Illumina sequence quality was surveyed with FastQC (available on the world wide web at bioinformatics.babraham.ac.uk/projects/fastqc/) to ensure suitability of library generation and sequencing for further analysis. Adapters and lower quality bases were trimmed with Cutadapt (available on the world wide web at code.google.com/p/cutadapt/), using a Phred quality cutoff of 20, and reassessed with FastQC. Trimmed reads were aligned to the Ensembl NCBIM37 Mus musculus genome build with TopHat2. Aligned reads were summarized at the gene level against the Illumina iGenomes (available on the world wide web at tophat.cbcb.umd.edu/igenomes.html) NCBIM37 Mus musculus gene annotations using HTSeq (available on the world wide web at huber.embl.de/users/anders/HTSeq/doc/overview.html). […] The full dataset is available in the NCBI GEO database with the accession number GSE65267. Raw data is accessible on the world wide web at ncbi.nlm.nih.gov/geo/query/acc.cgi?acc=GSE65267.
Mice were sacrificed at 1, 2, 3, 7 and 14 days following administration. […] All mice were sacrificed at 14 days.
as §1, with “The quantity and quality of mRNA” for “RNA samples (n=3 mice/time point)”, “assayed on an Agilent 2200 TapeStation instrument and by SYBR qPCR assay.” for “sequenced at the Bioplymers Facility at the Harvard Medical School.”, “(https://code.google.com/p/cutadapt/),” for “(available on the world wide web at code.google.com/p/cutadapt/),”

Nc1nc2ncc(CNc3ccc(C(=O)N[C@@H](CCC(=O)O)C(=O)O)cc3)nc2c(=O)[nH]1 [FA, folic acid]
Sycn mean fold change from normal (Day 3): 0.07 fold | Synpr mean fold change from normal (Day 3): 0.01 fold | Sytl2 mean fold change from normal (Day 3): 8.20 fold | Tagln2 mean fold change from normal (Day 3): 4.86 fold | Tbx10 mean fold change from normal (Day 3): 0.08 fold | Timd2 mean fold change from normal (Day 3): 1.47 fold | Timp1 mean fold change from normal (Day 3): 60.56 fold | Tlr2 mean fold change from normal (Day 3): 34.62 fold | Tmem25 mean fold change from normal (Day 3): 0.39 fold | Tmem26 mean fold change from normal (Day 3): 0.16 fold | Tmem207 mean fold change from normal (Day 3): 0.14 fold | Tmsb10 mean fold change from normal (Day 3): 9.84 fold | Tnc mean fold change from normal (Day 3): 9.00 fold | Tnfaip3 mean fold change from normal (Day 3): 6.38 fold | Tnfrsf23 mean fold change from normal (Day 3): 5.65 fold | Top2a mean fold change from normal (Day 3): 10.49 fold | Tpx2 mean fold change from normal (Day 3): 7.65 fold | Tril mean fold change from normal (Day 3): 0.69 fold | Tsc22d1 mean fold change from normal (Day 3): 4.34 fold | Ttc36 mean fold change from normal (Day 3): 0.34 fold | Ttr mean fold change from normal (Day 3): 0.15 fold | Tyrobp mean fold change from normal (Day 3): 4.90 fold | Ugt3a1 mean fold change from normal (Day 3): 0.17 fold | Uhrf1 mean fold change from normal (Day 3): 12.11 fold | Upp2 mean fold change from normal (Day 3): 0.21 fold | Vcam1 mean fold change from normal (Day 3): 121.91 fold | Vill mean fold change from normal (Day 3): 0.18 fold | Vmn1r18 mean fold change from normal (Day 3): 0.14 fold | Vmn1r19 mean fold change from normal (Day 3): 0.52 fold | Vmn1r20 mean fold change from normal (Day 3): 0.31 fold | Vmn1r-ps11 mean fold change from normal (Day 3): 0.73 fold | Vstm2a mean fold change from normal (Day 3): 0.04 fold | Vtcn1 mean fold change from normal (Day 3): 28.37 fold | Vwce mean fold change from normal (Day 3): 0.42 fold | Wfdc15b mean fold change from normal (Day 3): 0.06 fold | Ybx2 mean fold change from normal (Day 3): 0.18 fold | 7SK RNA mean fold change from normal (Day 7): 0.08 fold | 2310042D19Rik mean fold change from normal (Day 7): 0.46 fold | 4930533I22Rik mean fold change from normal (Day 7): 0.25 fold | 4933417A18Rik mean fold change from normal (Day 7): 0.41 fold | 8430408G22Rik mean fold change from normal (Day 7): 1.23 fold | 9030619P08Rik mean fold change from normal (Day 7): 0.03 fold | Slc2a5 mean fold change from normal (Day 7): 0.25 fold | Slc4a1 mean fold change from normal (Day 7): 0.35 fold | Slc5a4a mean fold change from normal (Day 7): 0.17 fold | Slc5a12 mean fold change from normal (Day 7): 0.35 fold | Slc6a12 mean fold change from normal (Day 7): 0.12 fold | Slc7a13 mean fold change from normal (Day 7): 0.10 fold | Slc28a1 mean fold change from normal (Day 7): 0.44 fold | Slc34a1 mean fold change from normal (Day 7): 0.30 fold | Slc34a2 mean fold change from normal (Day 7): 7.02 fold | Slc34a3 mean fold change from normal (Day 7): 0.20 fold | Slc46a3 mean fold change from normal (Day 7): 0.31 fold | Slco1a1 mean fold change from normal (Day 7): 0.12 fold | Smoc2 mean fold change from normal (Day 7): 4.22 fold | Smpdl3b mean fold change from normal (Day 7): 38.83 fold | Snx31 mean fold change from normal (Day 7): 0.07 fold | Socs1 mean fold change from normal (Day 7): 34.95 fold | Sox4 mean fold change from normal (Day 7): 11.09 fold | Sox9 mean fold change from normal (Day 7): 30.72 fold | Spaca7 mean fold change from normal (Day 7): 30.89 fold | Spink6 mean fold change from normal (Day 7): 5.47 fold | Spp1 mean fold change from normal (Day 7): 37.70 fold | Spred3 mean fold change from normal (Day 7): 3.82 fold | Spsb1 mean fold change from normal (Day 7): 8.93 fold | Spt1c3 mean fold change from normal (Day 7): 1.25 fold | St8sia2 mean fold change from normal (Day 7): 26.47 fold | Stil mean fold change from normal (Day 7): 3.57 fold | Stk32a mean fold change from normal (Day 7): 2.72 fold | Stra6 mean fold change from normal (Day 7): 22.31 fold | Susd2 mean fold change from normal (Day 7): 0.28 fold | Sycn mean fold change from normal (Day 7): 0.07 fold | Synpr mean fold change from normal (Day 7): 0.01 fold | Sytl2 mean fold change from normal (Day 7): 11.81 fold | Tagln2 mean fold change from normal (Day 7): 4.01 fold | Tbx10 mean fold change from normal (Day 7): 0.03 fold | Timd2 mean fold change from normal (Day 7): 0.68 fold | Timp1 mean fold change from normal (Day 7): 67.32 fold | Tlr2 mean fold change from normal (Day 7): 15.78 fold | Tmem25 mean fold change from normal (Day 7): 0.53 fold | Tmem26 mean fold change from normal (Day 7): 0.16 fold | Tmem207 mean fold change from normal (Day 7): 0.35 fold | Tmsb10 mean fold change from normal (Day 7): 9.28 fold | Tnc mean fold change from normal (Day 7): 16.74 fold | Tnfaip3 mean fold change from normal (Day 7): 8.79 fold | Tnfrsf23 mean fold change from normal (Day 7): 2.21 fold | Top2a mean fold change from normal (Day 7): 5.58 fold | Tpx2 mean fold change from normal (Day 7): 2.93 fold | Tril mean fold change from normal (Day 7): 2.07 fold | Tsc22d1 mean fold change from normal (Day 7): 2.18 fold | Ttc36 mean fold change from normal (Day 7): 0.34 fold | Ttr mean fold change from normal (Day 7): 0.56 fold | Tyrobp mean fold change from normal (Day 7): 16.29 fold | Ugt3a1 mean fold change from normal (Day 7): 0.22 fold | Uhrf1 mean fold change from normal (Day 7): 3.81 fold | Upp2 mean fold change from normal (Day 7): 0.69 fold | Vcam1 mean fold change from normal (Day 7): 63.51 fold | Vill mean fold change from normal (Day 7): 0.20 fold | Vmn1r18 mean fold change from normal (Day 7): 0.27 fold | Vmn1r19 mean fold change from normal (Day 7): 0.73 fold | Vmn1r20 mean fold change from normal (Day 7): 0.27 fold | Vmn1r-ps11 mean fold change from normal (Day 7): 0.11 fold | Vstm2a mean fold change from normal (Day 7): 0.20 fold | Vtcn1 mean fold change from normal (Day 7): 15.70 fold | Vwce mean fold change from normal (Day 7): 1.03 fold | Wfdc15b mean fold change from normal (Day 7): 0.27 fold | Ybx2 mean fold change from normal (Day 7): 0.72 fold | 7SK RNA mean fold change from normal (Day 14): 1.35 fold | 2310042D19Rik mean fold change from normal (Day 14): 0.95 fold | 4930533I22Rik mean fold change from normal (Day 14): 0.74 fold | 4933417A18Rik mean fold change from normal (Day 14): 0.67 fold | 8430408G22Rik mean fold change from normal (Day 14): 0.79 fold | 9030619P08Rik mean fold change from normal (Day 14): 0.25 fold | Slc2a5 mean fold change from normal (Day 14): 0.99 fold | Slc4a1 mean fold change from normal (Day 14): 0.92 fold | Slc5a4a mean fold change from normal (Day 14): 1.06 fold | Slc5a12 mean fold change from normal (Day 14): 0.58 fold | Slc6a12 mean fold change from normal (Day 14): 0.77 fold | Slc7a13 mean fold change from normal (Day 14): 0.48 fold | Slc28a1 mean fold change from normal (Day 14): 0.55 fold | Slc34a1 mean fold change from normal (Day 14): 0.58 fold | Slc34a2 mean fold change from normal (Day 14): 4.10 fold | Slc34a3 mean fold change from normal (Day 14): 0.33 fold | Slc46a3 mean fold change from normal (Day 14): 0.53 fold | Slco1a1 mean fold change from normal (Day 14): 0.36 fold | Smoc2 mean fold change from normal (Day 14): 6.08 fold | Smpdl3b mean fold change from normal (Day 14): 19.27 fold | Snx31 mean fold change from normal (Day 14): 0.27 fold | Socs1 mean fold change from normal (Day 14): 36.18 fold | Sox4 mean fold change from normal (Day 14): 7.60 fold | Sox9 mean fold change from normal (Day 14): 8.17 fold | Spaca7 mean fold change from normal (Day 14): 11.81 fold | Spink6 mean fold change from normal (Day 14): 1.77 fold | Spp1 mean fold change from normal (Day 14): 10.75 fold | Spred3 mean fold change from normal (Day 14): 5.60 fold | Spsb1 mean fold change from normal (Day 14): 4.14 fold | Spt1c3 mean fold change from normal (Day 14): 0.68 fold | St8sia2 mean fold change from normal (Day 14): 2.02 fold | Stil mean fold change from normal (Day 14): 0.95 fold | Stk32a mean fold change from normal (Day 14): 1.64 fold | Stra6 mean fold change from normal (Day 14): 14.59 fold | Susd2 mean fold change from normal (Day 14): 0.51 fold | Sycn mean fold change from normal (Day 14): 0.22 fold | Synpr mean fold change from normal (Day 14): 0.18 fold | Sytl2 mean fold change from normal (Day 14): 6.72 fold | Tagln2 mean fold change from normal (Day 14): 2.37 fold | Tbx10 mean fold change from normal (Day 14): 0.44 fold | Timd2 mean fold change from normal (Day 14): 0.67 fold | Timp1 mean fold change from normal (Day 14): 61.27 fold | Tlr2 mean fold change from normal (Day 14): 7.34 fold | Tmem25 mean fold change from normal (Day 14): 0.53 fold | Tmem26 mean fold change from normal (Day 14): 0.49 fold | Tmem207 mean fold change from normal (Day 14): 1.20 fold | Tmsb10 mean fold change from normal (Day 14): 5.31 fold | Tnc mean fold change from normal (Day 14): 18.78 fold | Tnfaip3 mean fold change from normal (Day 14): 3.95 fold | Tnfrsf23 mean fold change from normal (Day 14): 1.75 fold | Top2a mean fold change from normal (Day 14): 3.30 fold | Tpx2 mean fold change from normal (Day 14): 2.69 fold | Tril mean fold change from normal (Day 14): 0.97 fold | Tsc22d1 mean fold change from normal (Day 14): 2.00 fold | Ttc36 mean fold change from normal (Day 14): 0.67 fold | Ttr mean fold change from normal (Day 14): 0.78 fold | Tyrobp mean fold change from normal (Day 14): 10.29 fold | Ugt3a1 mean fold change from normal (Day 14): 0.46 fold | Uhrf1 mean fold change from normal (Day 14): 3.48 fold | Upp2 mean fold change from normal (Day 14): 1.34 fold | Vcam1 mean fold change from normal (Day 14): 36.46 fold | Vill mean fold change from normal (Day 14): 0.36 fold | Vmn1r18 mean fold change from normal (Day 14): 0.87 fold | Vmn1r19 mean fold change from normal (Day 14): 1.04 fold | Vmn1r20 mean fold change from normal (Day 14): 0.79 fold | Vmn1r-ps11 mean fold change from normal (Day 14): 0.51 fold | Vstm2a mean fold change from normal (Day 14): 0.60 fold | Vtcn1 mean fold change from normal (Day 14): 7.44 fold | Vwce mean fold change from normal (Day 14): 0.85 fold | Wfdc15b mean fold change from normal (Day 14): 0.90 fold | Ybx2 mean fold change from normal (Day 14): 0.44 fold
